Like-named read-outs stand apart in the source and are kept apart here.
Tests used:
[1] = Lipophilicity coefficient RM0 by reversed phase thin layer chromatography; type: physicochemical; conditions: RP-18 TLC, methanol / 100 mM phosphate buffer pH = 7.4
Outline: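 Reversed-phase TLC on RP-18 F254 silica, with methanol/100 mM phosphate buffer pH 7.4 mobile phases of 95–65% (v/v) methanol, at room temperature, in duplicate. Spots were visualized under UV at 254 nm. RM = log(1/Rf − 1) was plotted linearly against methanol content to derive RM0.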

[2] = tested on: B16-F10 murine melanoma cell line; experiment: Cytotoxicity in B16-F10 cells (MTT); type: cell-based; conditions: 48 h
Outline: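 Cells in F10-Ham with 1% FBS exposed to various compound concentrations for 48 h after 24 h pre-culture. MTT read-out: formazan dissolved in DMSO, absorbance at 570 nm. Viability expressed as percent of DMSO control (AT/AC×100).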

tyrosinase from mushroom = experiment: Inhibition of commercial mushroom tyrosinase (L-DOPA or L-tyrosine substrate); type: biochemical
Outline: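 Tyrosinase (1U/well or 3U/well) in 50 mM phosphate buffer pH 6.8 with compound at final 500, 250 or 125 µM; L-DOPA (diphenolase) or L-tyrosine (monophenolase) added in separate runs. Absorbance at 475 nm after 25 min; % inhibition versus DMSO control.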

[3] = L-DOPA, read-out: Tyrosinase inhibition with L-DOPA, IC50
[4] = L-tyrosine, read-out: Tyrosinase inhibition with L-tyrosine, IC50

| SMILES | RM0 [1] | Cytotoxicity study in B16F10 cells % viability ([2]; 150 µM) [%] | Cytotoxicity study in B16F10 cells % viability ([2]; 200 µM) [%] | Cytotoxicity study in B16F10 cells % viability ([2]; 250 µM) [%] | Tyrosinase inhibition with L-DOPA [%] (tyrosinase from mushroom; L-DOPA) | IC50 (tyrosinase from mushroom; [3]) [µM] | Tyrosinase inhibition with L-tyrosine [%] (tyrosinase from mushroom; L-tyrosine) | IC50 (tyrosinase from mushroom; [4]) [µM] | Tyrosinase inhibition with L-DOPA [%] (tyrosinase from mushroom; L-DOPA, 250 µM) |
| --- | --- | --- | --- | --- | --- | --- | --- | --- | --- |
| O=C(/C=C/c1ccc(Cl)cc1)NCCCO [H-330/21, (2E)-3-(4-chlorophenyl)-N-(3-hydroxypropyl)prop-2-enamide] | 1.94 | 78.6 | 82.9 | 83.9 | 55.32±1.39% (500 µM) | 265 | 82.49±0.65% (500 µM) | 106 | – |
| O=C(/C=C/c1ccccc1)NCCCCCCO [H-425/21, (E)-N-(6-hydroxyhexyl)cinnamic acid amide] | 2.40 | 109.2 | 98.4 | 86.9 | 34.63±2.46% (500 µM) | – | 44.61±5.99% (500 µM) | 764 | – |
| O=C(/C=C/c1ccc(Cl)cc1)NCCO [H-427/21, (2E)-3-(4-chlorophenyl)-N-(2-hydroxyethyl)prop-2-enamide] | 1.93 | 73.7 | 80.2 | 77.8 | 55.77±0.77% (500 µM) | 278 | 67.45±2.66% (500 µM) | 196 | – |
| O=C(/C=C/c1ccccc1)NCCCCCO [Compound A-133, (2E)-N-(5-hydroxypentyl)-3-phenylprop-2-enamide] | 2.15 | 101.7 | 94.9 | 95.6 | 47.96±1.83% (500 µM) | 523 | 58.56±4.58% (500 µM) | 450 | – |
| Cc1ccc(/C=C/C(=O)NCCCCCO)cc1 [H-415/21, (2E)-N-(5-hydroxypentyl)-3-(4-methylphenyl)prop-2-enamide] | 2.49 | 85.2 | 90.3 | 75.7 | 30.43±0.88% (500 µM) | – | 25.04±5.67% (500 µM) | – | – |
| O=C(/C=C/c1ccc(Cl)cc1)NCCCCCO [Compound A-111, (2E)-3-(4-chlorophenyl)-N-(5-hydroxypentyl)prop-2-enamide] | 2.79 | 88.2 | 95.6 | 89.7 | – | 147 | 88.98±0.98% (500 µM) | 37 | 59.94±1.56% (250 µM) |

— EP4324461A1, “(E)-N-CINAMOYLAMINOALKANOLES WITH MELANOGENESIS INHIBITORY ACTIVITY” (UNIWERSYTET JAGIELLONSKI, priority 2022, dated 2024)
